EP0100158A2, “(3-pyridinyl)heteroalkarylalkanols, alkanoic acids and esters” (THE UPJOHN COMPANY, priority 1982, dated 1984)

Target: T1, TXA2 synthetase (Homo sapiens, UniProt P24557)
T1 construct: generated by mixing prostaglandin H2 (PGH2) with human platelet microsomes (HPM); from tissue; host or cells: human platelet microsomes
T1 sequence (P24557 1-533): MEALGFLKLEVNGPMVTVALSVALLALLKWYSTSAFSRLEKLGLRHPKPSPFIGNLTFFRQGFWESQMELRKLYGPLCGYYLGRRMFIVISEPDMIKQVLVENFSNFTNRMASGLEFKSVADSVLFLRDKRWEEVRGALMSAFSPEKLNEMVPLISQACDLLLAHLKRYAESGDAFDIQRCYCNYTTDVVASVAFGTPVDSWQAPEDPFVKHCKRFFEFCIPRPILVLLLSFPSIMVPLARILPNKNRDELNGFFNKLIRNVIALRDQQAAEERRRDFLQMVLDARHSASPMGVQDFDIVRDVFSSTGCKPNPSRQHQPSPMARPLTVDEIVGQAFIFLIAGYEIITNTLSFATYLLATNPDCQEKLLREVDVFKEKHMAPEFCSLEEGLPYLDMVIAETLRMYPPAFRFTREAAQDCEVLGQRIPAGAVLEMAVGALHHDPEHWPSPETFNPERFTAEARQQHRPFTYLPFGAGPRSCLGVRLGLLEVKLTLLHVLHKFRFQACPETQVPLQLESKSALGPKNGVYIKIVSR
Test: TXA2 inhibition test: TXA2 generated from PGH2 with human platelet microsomes, response measured on superfused rabbit aortic strips
Format: biochemical
Settings: inhibition of TXA2 formation; test compound added to human platelet microsomes 5 minutes before mixing with PGH2; rabbit aorta readout; read-out: approximate ED50's (converted)
Procedure: The compounds of the present invention were tested for TXAz inhibition as follows: • Rabbit aortic strips were superfused in series with Krebs solution. Thromboxane Az (TXA2) was generated by mixing prostaglandin H2 (PGH2) with human platelet microsomes (HPM).
Potential inhibitors were tested by comparing the response of the rabbit aorta to the amount of TXAz produced by mixing PGH2 and HPM without the test compound in the reaction medium and then the amount of TXAz produced when the test compound was added to the HPM 5 minutes before the HPM was mixed with PGH2.

## O=C(O)c1cc(CNc2cccnc2)ccc1O
  IC50: ~37.6 nM
